Measurements from US20090298745A1, “Treatment of Diabetes with Glycogen Phosphorylase Inhibitors” (priority 2004, published 2009).

System: Diabetic ZDF male rats
Assay: In vivo animal model to mimic human night time dosing
Design: species or system rat
Conditions: 30 mg/kg po via gavage in 10% Gelucire 44/14; 360 min after dosing at 14 weeks old, from start of dosing (T=0); p=0.019 versus vehicle controls
Procedure: Diabetic ZDF male rats (Charles River) were allowed free access to tap water and enriched pelleted chow diet (M-Z Ereich; Art. No. V1185-000; Ssniff R Spezialdiäten GmbH, D-59494, Soest Germany) ad-libitum for 4 weeks until they were 8 weeks old. The animals were housed under a 16 hr/8 hr:dark/light phase (lights on 09:00). As the animals progressed to the diabetic state, weekly blood glucose and insulin measurement were made at the end of the light period (17:00 h) and a blood glucose measurement made at the end of the active (dark) cycle (08:30-09:00 h). When the animals had reached 8 weeks of age, they were trained on a meal paradigm, by removal of food during the light period (09:00-17:00 h), which was maintained for the remainder of the study. After the animals had reached 12 weeks of age, and their diabetic status had been confirmed using the fasted glucose measurements (>8 mM), the animals were divided into groups. […] Blood glucose and insulin concentrations were measured by the glucose oxidase method (Super G Glucose analyzer; Dr. Müller Gerätebau, Freital, Germany) and Elisa technique, respectively, at T=−45 min, before dosing (08:15 h) and then at T=0 min ([…]), T=45 min (09:45 h), T=90 min (10:30 h), T=150 min (11:20 h) and T=360 min (15:00 h) after each weekly successive test compound dose.

## O=C(N[C@@H](Cc1ccc(F)cc1)C(=O)N1CCC(O)CC1)c1cc2cc(Cl)ncc2[nH]1 [Example 3, 5-chloro-1H-pyrrolo[2,3-c]pyridine-2-carboxylic acid [1-(S)-(4-fluorobenzyl)-2-(4-hydroxypiperidin-1-yl)-2-oxoethyl]amide]
  reduction in blood glucose concentration (mean+/−S.D.): 6.28 ± 2.47 mM
